These results are taken from patent publication US6242446A, “Method for treating attention deficit disorder” (Merck & Co., Inc., priority 2000, dated 2001).

Assay [1] has as its system cisplatin-induced emesis in ferrets. Put plainly: Ferret Emesis Assay (cisplatin-induced emesis). The assay is classed as in vivo. The settings on record: Mustela putorius, po; cisplatin 10 mg/kg i.v.; 4 hours observation; read-out: ferret emesis ID90.
Procedure: Individually housed male ferrets (1.0-2.5 kg) are dosed orally by gavage with test compound. Ten minutes later they are fed with approximately 100 g of tinned cat food. At 60 minutes following oral dosing, cisplatin (10 mg/kg) is given i.v. via a jugular vein catheter inserted under a brief period of halothane anaesthesia. The catheter is then removed, the jugular vein ligated and the skin incision closed. The ferrets recover rapidly from the anaesthetic and are mobile within 10-20 minutes. The animals are observed continuously during recovery from the anaesthetic and for 4 hours following the cisplatin injection, after which time the animals are killed humanely. The numbers of retches and vomits occurring during the 4 hours after cisplatin administration are recorded by trained observers.
The test system of assay [2] is foot tapping in gerbils. Put plainly: Gerbil Foot-Tapping Assay (induced by central injection of an NK1 agonist). The assay is classed as in vivo, Mongolian gerbils. The settings on record: Meriones unguiculatus, iv. From the text: Gerbil Foot-Tapping Assay CNS penetrant NK-1 receptor antagonists for use in the resent invention can be identified by their ability to inhibit foot tapping in gerbils induced by anxiogenic agents (such as pentagastrin) or central infusion of NK-1 receptor agonists such as GR-73632, or caused by aversive stimulation such as foot shock or single housing, based on the method of Rupniak & Williams, Eur. J. Pharmacol., 1994, 265, 179. Male or female Mongolian gerbils (35-70 g) are anaesthetised by inhalation of an isoflurane/oxygen mixture to permit exposure of the jugular vein in order to permit administration of test compounds or vehicle in an injection volume of 5 ml/kg i.v. Alternatively, test compounds may be administered orally or by subcutaneous or intraperitoneal routes. The wound is closed and a second skin incision is made in the midline of the scalp to expose the skull. […] The duration and/or intensity of hind foot tapping is then recorded continuously for 5 minutes. Alternatively, the ability of test compounds to inhibit foot tapping evoked by aversive stimulation, such as foot shock or single housing, may be studied using a similar method of quantification.

Assay [3] relates to distress vocalisations in guinea-pig pups. The experiment in a line: Separation-Induced Vocalisation Assay. The assay is classed as in vivo, guinea-pigs. The conditions noted are these: Cavia porcellus, po; 4 hr. pre-treatment; read-out: guinea-pig vocalisation (4 hr. pre-treatment) ID50. From the text:
Separation-Induced Vocalisation Assay Male and female guinea-pigs pups are housed in family groups with their mothers and littermates throughout the study. Experiments are commenced […] when the pups are 2 weeks old. Before entering an experiment, the pups are screened to ensure that a vigorous vocalisation response is reproducibly elicited following maternal separation. The pups are placed individually in an observation cage (55 cm×39 cm×19 cm) in a room physically isolated from the home cage for 15 minutes and the duration of vocalisation during this baseline period is recorded. Only animals which vocalise for longer than 5 minutes are employed for drug challenge studies (approximately 50% of available pups may fail to reach this criterion). On test days each pup receives an oral dose or a s.c. or i.p. injection of test compound or vehicle and is then immediately returned to the home cage with its mother and siblings for 30 minutes to 60 minutes (or for up to 4 hours following an oral dose, dependant upon the oral pharmacokinetics of the test compound) before social isolation for 15 minutes as described above. The duration of vocalisation on drug treatment days is expressed as a percentage of the pre-treatment baseline value for each animal. The same subjects are retested once weekly for up to 6 weeks. Between 6 and 8 animals receive each test compound at each dose tested. […]

Like-named read-outs stand apart in the source and are kept apart here.

Regarding `C[C@@H](O[C@H]1OCCN(Cc2n[nH]c(=O)[nH]2)[C@H]1c1ccc(F)cc1)c1cc(C(F)(F)F)cc(C(F)(F)F)c1` [2-(R)-(1-(R)-(3,5-bis(trifluoromethyl)-phenyl)-ethoxy)-3-(S)-(4-fluorophenyl)-4-(3-(5-oxo-1H,4H-1,2,4-triazolo)methyl)-morpholine], in assay [1], the ED90 is below 3 mg/kg. Also, the ED50 in assay [2] (5 min, i.v., 5 mins., read-out: gerbil foot-tapping (5 mins.) ID50) was 0.36 mg/kg; in assay [2] (24 hrs. prior to central NK1 agonist challenge, read-out: gerbil foot-tapping (24 hrs.) ID50), 0.33 mg/kg; in assay [3], 0.73 mg/kg.
